From ChEMBL document CHEMBL5338766, “X-ray Crystal Structure-Guided Discovery of Novel Indole Analogues as Colchicine-Binding Site Tubulin Inhibitors with Immune-Potentiating and Antitumor Effects against Melanoma” (J Med Chem, 2023)
Calls of active or inactive are those of the source. No cut-off for these calls is given here.

Assays:
[1] = test system: A2780S; assay: Antiproliferative activity against parental human A2780S cells assessed as inhibition of cell proliferation incubated for 48 hrs by MTT assay; format: functional, cell-based
[2] = test system: HepG2; assay: Antiproliferative activity against human HepG2 cells assessed as inhibition of cell proliferation incubated for 48 hrs by MTT assay; format: functional, cell-based; settings: HepG2, 48 h
[3] = Resistance index, ratio of IC50 for antiproliferative activity against paclitaxel resistant human A549/TxR cells to IC50 for antiproliferative activity against parental human A549S cells; format: functional
[4] = target: Tubulin (Homo sapiens) (UniProt P68371+Q9H4B7+P0DPH7+P68366+Q13509+Q71U36+P04350+Q3ZCM7+P07437+P68363+Q9BQE3+Q6PEY2+Q13885+Q9BVA1+Q9BUF5); assay: Disruption of microtubule network in human HepG2 cells cytosol incubated for 12 hrs by DAPI staining based fluorescence microscopic analysis; format: subcellular; settings: dose 0.5-5 nM
[5] = AUC (0 to infinity) in Sprague-Dawley rat at 20 mg/kg, po measured upto 12 hrs by UPLC-MS/ESI analysis; format: ADME, organism-based; design: dose 20 mg/kg, time < 12 hrs, route po; settings: in vivo
[6] = MRT (0 to infinity) in Sprague-Dawley rat at 20 mg/kg, po measured upto 12 hrs by UPLC-MS/ESI analysis; format: ADME, organism-based; settings: in vivo
[7] = Apparent volume of distribution in Sprague-Dawley rat at 20 mg/kg, po measured upto 12 hrs by UPLC-MS/ESI analysis; format: ADME, organism-based; settings: in vivo
[8] = Acute toxicity in C57 mouse assessed as survival rate at 80 mg/kg, po administered daily for 14 days relative to control; format: organism-based; settings: in vivo, time 14 day, read-out: Activity
[9] = test system: B16-F10; assay: Antitumor activity against mouse B16-F10 cells implanted in C57 mouse assessed as reduction in tumor weight at 2.5 mg/kg, ip administered every day for 14 days in the presence of NP19; format: functional, organism-based; settings: time 14.0 day

COc1cc(-c2nccc3[nH]c(-c4cccc5c4ccn5C)nc23)cc(OC)c1OC
IC50 [1]: 1.6 nM | IC50 [2]: 1 nM | Ratio IC50 [3]: 1.8 | Activity [4]: Dose-Dependent Effect | AUC(0-inf) [5]: 3380 ng·h/mL | MRT inf [6]: 3.24 h | Vz [7]: 16.84 L/kg | survival at 336 h [8]: 20% | Activity [9]: Active
